Results reported in US20190231822A1, “METHODS OF REDUCING CHRONIC GRAFT-VERSUS-HOST DISEASE” (Regents of the University of Minnesota, priority 2016, published 2019).

Tested on: cGVHD
Test: cGVHD prevention or reversal by an iNKT agonist
Type: in vivo
Details: intravascular administration

SMILES: CCCCCCCCCCCCCCCCCCCCCCCCCC(=O)N[C@@H](CO[C@H]1O[C@H](CO)[C@H](O)[C@H](O)[C@H]1O)[C@H](O)[C@H](O)CCCCCCCCCCCCCC [alpha-galactosylceramide]
- prevention or reversal of cGVHD: able to prevent or reverse cGVHD
